The source of these data is patent US20070275046A1, “Noval Surfactants and Applications Thereof” (TS PHARMA, priority 2003, published 2007).

Common to all, as to format: physicochemical
The nature of data set [1]: Phase transition temperature by polarization spectrofluorimetry (DPH probe) and light scattering. The note with it: polarization of fluorescent probe DPH. As for the experimental part: (§1) The size and the mechanical stability over time of the particles obtained in the solution were measured after dynamic light diffraction filtration (High Performance Particle Sizer, Malvern). The nature of the particles obtained was studied by transmission electron microscopy after negative staining of the sample or after freeze-fracture. The critical aggregation concentration of these surfactants was determined by tensiometry or by spectrofluorimetry using the fluorescent label method. Furthermore, the Wilhelmy tensiometry technique made it possible to determine the maximum surface tensions and the area of the polar head at the water-air interface (FIG. 8). […] In order to cause this value to decrease or increase, it is necessary to, respectively, increase or decrease the length of the hydrocarbon-based chains. The phase transition temperature of these surfactants was determined by polarization spectrofluorimetry and by light scattering (FIG. 9).
With R=C17H35 (derivative A1). The phase transition temperature was measured via detection of the polarization of a fluorescent probe, DPH, by spectrofluorimetry: Tm=54° C.

Data set [2] can be described thus: Release kinetics of encapsulated carboxyfluorescein by spectrofluorimetry. The note with it: compared with encapsulation in egg yolk phosphatidylcholine; 25° C., Tris buffer pH 7.4, 4 h. As for the experimental part: The encapsulation capacity of the various compounds is determined by spectrofluorimetry using a fluorescent probe: 5 (6)-carboxyfluorescein. The release of this fluorescent label from the vesicles prepared according to standardized methods is measured.
This study requires the preparation of a Tris buffer (15 mM and 150 mM NaCl) at pH 7.4, and also of a 120 mM carboxyfluorescein solution, also at pH 7.4.
The compounds studied are weighed out (2.5 mg/ml) and are dissolved in a minimum amount of methanol. The solvent is evaporated off under reduced pressure in a rotary evaporator and the film thus obtained is dried with a stream of nitrogen. […]
The fluorescence measurements were carried out using a Jobin-Yvon spectrofluorimeter (spectrofluoromax 2), equipped with a 150 W xenon lamp. […] The samples were analyzed at an excitation wavelength of 480 nm, and an emission wavelength of 530 nm for 4 hours. […]
For each measurement, the initial fluorescence intensity (F0) is determined 30 seconds after the column filtration. The release is studied over a period of 4 h and the fluorescence intensity (Ft) is measured at regular intervals. The maximum fluorescence intensity (Fmax), which corresponds to 100% release, is obtained after tubular vesicle lysis obtained by the addition of Triton X100 (10% v/v). […]

Data set [3] can be described thus: Mechanical stability over time of the particles (particle size on storage). The procedure:
(§2) The size and the mechanical stability over time of the particles obtained in the solution were measured after filtration by dynamic light diffraction (High Performance Particle Sizer, Malvern). The nature of the particles obtained was studied by transmission electron microscopy after negative staining of the sample or after freeze-fracture (FIG. 4).
as §1

A short description of data set [4]: Particle size by dynamic light diffraction / photon correlation spectroscopy (Malvern HPPS). The procedure:
as §2
The size and the mechanical stability over time of the particles obtained in the solution were measured after dynamic light diffraction filtration (High Performance Particle Sizer, Malvern). The nature of the particles obtained was studied by transmission electron microscopy after negative staining of the sample or after freeze-fracture. The critical aggregation concentration of these surfactants was determined by tensiometry or by spectrofluorimetry using the fluorescent label method. […] The phase transition temperature of these surfactants was determined by polarization spectrofluorimetry and by light scattering (FIG. 9).
The size distribution of the particles was measured by photon correlation spectroscopy of light of samples diluted in water using a Malvern HPPS/NIBS device equipped with a 3 mW He/Ne laser and a 288-channel correlator equipped with an avalanche of photodiodes. […]

Data set [5] in a line: Shape and size of tubular vesicles from transmission electron micrographs (negative staining, freeze-fracture). The procedure:
as §2
The freeze-fracture analyses confirmed the formation of these tubular vesicles and their morphological characteristics, namely the presence of an inner aqueous cavity isolated from the outside medium (FIG. 5).
The freeze-fracture analyses confirmed the formation of these tubular vesicles and their morphological characteristics, i.e. the presence of an inner aqueous cavity isolated from the outside medium.

As to `CCCCCCCCCCCCCCCCCNC(=O)OCC(CNC(=O)CCSCCC(=O)NC(CO)(CO)CO)OC(=O)NCCCCCCCCCCCCCCCCC` (centres unmarked) [A1], in data set [1], the “phase transition temperature Tm” value turned out to be 54 °C. In addition, the “release kinetics of encapsulated carboxyfluorescein” value in data set [2] is “slower release kinetics”. Moreover, the “change in particle size on storage” value in data set [3] (aqueous dispersion of tubular vesicles) is listed as “no change in particle size is observed after one year of storage”. Also, in data set [4] (tubular vesicles from lipid dispersed in water at 2.5 mg.ml^-1, measured by light diffraction), the “mean hydrodynamic diameter of the tubular vesicles” value was 132 nm. Besides, in data set [4] (tubular vesicles, light diffraction, printed with the mean hydrodynamic diameter), the IP is 0.35. Besides, in data set [5], the “average cross section of the tubular vesicles” value came to 38 nm and the “average length of the tubular vesicles” value is 247 nm.
As for `CCCCCCCCCCCCCCCCCC(=O)OCC(CNC(=O)CCSCCC(=O)NC(CO)(CO)CO)OC(=O)CCCCCCCCCCCCCCCCC` (centres unmarked) [B, reference compound], the “mechanical stability of the liposomes formed in water” value in data set [3] (liposomes with conventional structures) was “only a few hours”.
